Experimental data published in patent US12661431B2, “Pharmaceutical compositions for treating osteoarthritis” (INSIGNIA PHARMACEUTICALS, LLC, priority 2023, dated 2026).
Entries after “also recorded” stand apart in the source; their conditions may differ.

What was measured:
[1] = test system: Human osteoarthritic chondrocytes; assay: Immunostaining for SOX9, Col2a1 and ACAN of osteoarthritic chondrocytes cultured 24 days on HA hydrogel; assay type: cell-based
Description: ACAN is an articular cartilage-specific proteoglycan that is important to the proper function and the load-bearing capacity of cartilage. Data is presented as the fluorescence of photographic images captured on an epifluorescent microscope for the ACAN signal (FU) normalized to the signal of 4′,6-diamidino-2-phenylindole (DAPI) nuclear stain, designated as FU/DAPI.
The chondrocytes were layered on top of an HA hydrogel (SYNVISC®, Sanofi-Aventis, United States). Following 24 days, the cells were fixed with paraformaldehyde and immunostained for SOX9, Col2a1, and ACAN.

[2] = test system: Human osteoarthritic chondrocytes; assay: Microscopic examination of chondrocyte spheroid morphology on HA hydrogel; assay type: cell-based
Experimental: The chondrocytes were layered on top of an HA hydrogel (SYNVISC®, Sanofi-Aventis, United States). Following 20 days, hyaluronidase was added to release the cells from the hydrogel, the cells were collected, and total RNA was isolated.
Control chondrocytes established a monolayer on the bottom surface of their culture wells (FIG. 4A).

[3] = test system: THP-1 macrophage-like cells; assay: IL-1beta release (ELISA) from PMA-differentiated THP-1 cells activated with LPS then ATP; assay type: cell-based, human; settings: 0.2 (0.19) to 6 millimolar; LPS 100 ng/mL 24 hours then 10 millimolar ATP 1 hour
Experimental: The human monocyte cell line THP-1 was differentiated into macrophage-like cells with PMA for 72 hours. […] Cells were then activated with 100 nanograms per milliliter lipopolysaccharide (LPS) for 24 hours followed by an additional hour with 10 millimolar adenosine triphosphate (ATP). LPS is a toll-like receptor 4 (TLR4) agonist, and ATP activates […] to promote inflammasome activity. The resulting IL-1beta release was quantified by enzyme-linked immunosorbent assay (ELISA).

[4] = test system: THP-1 macrophage-like cells; assay: Colorimetric MTS cell density/viability assay, resting and activated THP-1 cultures; assay type: cell-based, human; settings: 6 millimolar decanoic acid
Experimental: Then cell density was assessed in both resting and activated cultures using a colorimetric MTS assay with optical density at 490 nanometers (FIGS. 6A & 6B).

[5] = test system: THP-1 macrophage-like cells; assay: IL-1beta release (ELISA) from PMA-differentiated THP-1 cells stimulated with CL075 with or without ATP; assay type: cell-based, human; settings: 1 millimolar decanoic acid
Experimental: TLR7/8 agonists increase inflammasome activity and IL-1beta release through a different pathway relative to TLR4 agonists. To evaluate this response, THP-1 monocytic cells were differentiated to a macrophage-like state using PMA for 72 hours. […] To further activate the inflammasome, ATP was then added to the wells designated “second hit,” and the cultures were incubated for an additional hour. To indicated wells, hyaluronidase was added for 15 minutes, and all mediums harvested for IL-1beta ELISA quantification. Results are depicted in FIG. 7.

[6] = test system: THP-1 macrophage-like cells; assay: Tetrazolium colorimetric cell count assay of THP-1 cultures on HA hydrogel; assay type: cell-based, human; settings: addition of decanoic acid (1 millimolar) on HA hydrogel
Experimental: A colorimetric assay confirmed that the inhibition of IL-1beta release was not caused solely by reduced cell counts. Tetrazolium colorimetric dye was added to the cultures at the end of the experiment and cell counts were measured by optical density at 490 nanometers.

[7] = test system: Osteoarthritic fibroblast-like chondrocytes; assay: MMP13 expression by real time RT-PCR in osteoarthritic fibroblast-like chondrocytes; assay type: cell-based; settings: 0.1 percent hyaluronic acid and/or 0.1 micromolar dexamethasone
Experimental: Osteoarthritic fibroblast-like chondrocytes were cultured for 2 to 28 days in the presence of either 0.1 percent hyaluronic acid, 0.1 micromolar dexamethasone, or both 0.1 percent hyaluronic acid and 0.1 micromolar dexamethasone. Media was exchanged every 2-3 days. Chondrocytes cultured for 2 days, 14 days, or 28 days were analyzed by real time RT-PCR to assess matrix metallopeptidase 13 (MMP13) expression.

[8] = high-density monolayers, vehicle, 0.1, 0.5 and 1 millimolar decanoic acid

Structure (SMILES) | spheroid development or condensation ([1]; 1 millimolar decanoic acid, 24 days on HA hydrogel) | concentration of peak Col2a1 staining ([1]; high-density monolayers) [millimolar] | punctate staining for Col2a1 [1, 8] | staining for aggrecan (ACAN) [1, 8] | nuclear staining for SOX9 ([1]; high-density monolayers, vehicle, 0.1, 0.5 and 1 millimolar decanoic acid, 24 days on HA hydrogel) | punctate immunostaining for Col2a1 ([1]; low-density monolayers, 1 millimolar decanoic acid) | intracellular staining for ACAN (FU/DAPI, FIG. 1) ([1]; low-density monolayers, increasing millimolar concentrations, strongest at 1 millimolar) | ACAN immunostaining of chondrocyte spheroids ([1]; spheroids on HA hydrogels, 1 millimolar decanoic acid) | spheroid morphology after 4 days of culture ([2]; 4 days on HA hydrogel, with vs without decanoic acid) | spheroid morphology after 20 days of culture ([2]; 20 days on HA hydrogel, 1 millimolar decanoic acid vs without) | inhibition of inflammasome-IL-1beta release [3] | cell density / viability (MTS, OD 490 nanometers) [4] | decrease concentration of IL-1beta ([5]; CL075 24 hours then ATP 1 hour (second hit)) [%] | decrease concentration of IL-1beta ([5]; CL075 24 hours, absence of ATP (first hit)) [%] | decrease in optical density at 490 nanometers (cell counts) ([6]; CL075, absence of ATP) [%] | decrease in optical density at 490 nanometers (cell counts) ([6]; CL075, presence of ATP) [%] | Change in MMP13 expression at day 2 [7] | Change in MMP13 expression at day 14 [7] | Change in MMP13 expression at day 28 [7]
CCCCCCCCCC(=O)O [decanoic acid] | enhanced spheroid development or condensation | 0.5 | dose-dependent punctate staining for Col2a1 | dose-dependent increase in staining for aggrecan | enhanced nuclear staining for SOX9 in a dose-dependent manner | strong punctate immunostaining for Col2a1 | dose-dependent increase in aggrecan (ACAN) immunofluorescence staining; also recorded: dose-dependent intracellular staining for ACAN | strong ACAN immunostaining | the spheroids generated interconnected networks; also recorded: promoted interconnected networks of spheroids | increased condensation and the development of large spheroids; also recorded: large spheroid development or condensation | dose-dependent inhibition of IL-1beta concentrations; also recorded: dose-dependent inhibition of inflammasome-IL-1beta release | significant decrease in viability; also recorded: unfavorable effect on cell density | 91 | 77 | 18 | 25 | – | – | –
C[C@@H]1C[C@H]2[C@@H]3CCC4=CC(=O)C=C[C@]4(C)[C@@]3(F)[C@@H](O)C[C@]2(C)[C@@]1(O)C(=O)CO [dexamethasone] | – | – | – | – | – | – | – | – | – | – | – | – | – | – | – | – | 0 | −399 | −4
